Patent US11433090B2, “mTOR-inhibitor-containing medicine for treating or preventing ophthalmic symptoms, disorders, or diseases, and application thereof” (The Doshisha, priority 2017, dated 2022)

System: fibronectin
Assay: Western blot of fibronectin production induced by TGF-β2 in iFECD
Format: cell-based, human
Settings: 3 pmol mTOR siRNA, then TGF-β2 10 ng/ml 24 h, FIG. 9
Procedure: The medium was removed from a culture dish in which iFECDs were being cultured, and the cells were supplemented with 1×PBS (−) that was preheated to 37° C., and were washed. This was repeated twice. The cells were supplemented again with 1×PBS (−) and incubated for 3 minutes at 37° C. (5% CO2). After removing the PBS (−), the cells were supplemented with 0.05% Trypsin-EDTA (Nacalai Tesque, 32778-34) and incubated for 5 minutes at 37° C. (5% CO2). The cells were then suspended in a medium, and collected by centrifugation at 1500 rpm for 3 minutes. DMEM (Nacalai Tesque, 08456-36)+10% FBS (Biowest, S1820-500)+1% P/S (Nacalai Tesque, 26252-94) was used as the medium.
iFECDs were seeded on a 6-well plate at a ratio of 2×10^5 cells per well and cultured for 24 hours at 37° C. (5% CO2) (DMEM+10% FBS+1% P/S was used as the medium). After 24 hours, the medium was removed. Rapamycin was added to culture the cells for 24 hours. (DMEM+2% FBS+1% P/S was used as the medium). After 24 hours, the medium was removed. A medium containing 10 ng/ml of Recombinant Human TGF-β2 (Wako, 200-19911) and rapamycin was added to culture the cells for 24 hours. […]
5 μg of the extracted protein was separated by SDS-PAGE and transferred onto a nitrocellulose membrane. […] The detected band strength was analyzed with a lumino image analyzer LAS-4000 mini (Fuji Film) and ImageQuant™ software (GE Healthcare). […]

With “mTOR siRNA: siRNA against mTOR gene (Ambion, AS026M0L); sense strand SEQ ID NO: 1, antisense strand SEQ ID NO: 2 (sense CAUUCGCAUUCAGUCCAUATT; antisense UAUGGACUGAAUGCGAAUGAT; chemistry not given here)” as the substance, how does the “production of fibronectin induced by TGF-β2, western blot” value read?
The value was “hardly observed”.
